Measured values as given in PMC11352961, “Peptide dendrimers transfecting CRISPR/Cas9 plasmid DNA: optimization and mechanism” (RSC Chemical Biology, 2024).
Bridge positions count the residues as written; N and C are the ends. Square brackets hold non-standard residues; d marks the D form. Side chains are listed from the residue outwards. Peptide text beside a SMILES is read from it. I, II: the chains in the order shown. * marks the point of attachment. Stearoyl = CCCCCCCCCCCCCCCCCC(=O)*; Palmitoyl = CCCCCCCCCCCCCCCC(=O)*

How the values were obtained:
HeLa cells = assay: Cell viability by PrestoBlue assay after transfection, HeLa cells; assay type: cell-based; conditions: 4 h
HEK293 cells = assay: Cell viability by PrestoBlue assay after transfection, HEK cells; assay type: cell-based; conditions: 4 h

Row | Compound | % viability HeLa cells (HeLa cells) [%] | % viability HEK cells (HEK293 cells) [%]
1 | CC(C)C[C@H](NC(=O)[C@H](CC(C)C)NC(=O)[C@H](CC(C)C)NC(=O)[C@H](CC(C)C)NC(=O)[C@H](CC(C)C)NC(=O)[C@H](CCCCNC(=O)[C@H](CC(C)C)NC(=O)[C@H](CCCCN)NC(=O)[C@H](CCCCNC(=O)[C@H](CC(C)C)NC(=O)[C@H](CCCCN)NC(=O)[C@H](CCCCNC(=O)[C@H](CC(C)C)NC(=O)[C@@H](N)CCCCN)NC(=O)[C@H](CC(C)C)NC(=O)[C@@H](N)CCCCN)NC(=O)[C@H](CC(C)C)NC(=O)[C@H](CCCCN)NC(=O)[C@H](CCCCNC(=O)[C@H](CC(C)C)NC(=O)[C@@H](N)CCCCN)NC(=O)[C@H](CC(C)C)NC(=O)[C@@H](N)CCCCN)NC(=O)[C@H](CC(C)C)NC(=O)[C@H](CCCCN)NC(=O)[C@H](CCCCNC(=O)[C@H](CC(C)C)NC(=O)[C@H](CCCCN)NC(=O)[C@H](CCCCNC(=O)[C@H](CC(C)C)NC(=O)[C@@H](N)CCCCN)NC(=O)[C@H](CC(C)C)NC(=O)[C@@H](N)CCCCN)NC(=O)[C@H](CC(C)C)NC(=O)[C@H](CCCCN)NC(=O)[C@H](CCCCNC(=O)[C@H](CC(C)C)NC(=O)[C@@H](N)CCCCN)NC(=O)[C@H](CC(C)C)NC(=O)[C@@H](N)CCCCN)C(N)=O [Z3] (I: H-KLK([Leu-Lys])KLKKLKLLLLL-NH2 / II: H-KLK([Leu-Lys])KLKKL / III: H-KLK([Leu-Lys])KL / IV: H-KLK([Leu-Lys])KL; amide I:6-IV:C, I:9-II:C, II:6-III:C) | 51 ± 5 | 76 ± 7
2 | CCCCCCCCCCCCCCCC(=O)NCCCC[C@H](NC(=O)[C@H](CCCCNC(=O)[C@H](CC(C)C)NC(=O)[C@H](CCCCN)NC(=O)[C@H](CCCCNC(=O)[C@H](CC(C)C)NC(=O)[C@H](CCCCN)NC(=O)[C@H](CCCCNC(=O)[C@H](CC(C)C)NC(=O)[C@@H](N)CCCCN)NC(=O)[C@H](CC(C)C)NC(=O)[C@@H](N)CCCCN)NC(=O)[C@H](CC(C)C)NC(=O)[C@H](CCCCN)NC(=O)[C@H](CCCCNC(=O)[C@H](CC(C)C)NC(=O)[C@@H](N)CCCCN)NC(=O)[C@H](CC(C)C)NC(=O)[C@@H](N)CCCCN)NC(=O)[C@H](CC(C)C)NC(=O)[C@H](CCCCN)NC(=O)[C@H](CCCCNC(=O)[C@H](CC(C)C)NC(=O)[C@H](CCCCN)NC(=O)[C@H](CCCCNC(=O)[C@H](CC(C)C)NC(=O)[C@@H](N)CCCCN)NC(=O)[C@H](CC(C)C)NC(=O)[C@@H](N)CCCCN)NC(=O)[C@H](CC(C)C)NC(=O)[C@H](CCCCN)NC(=O)[C@H](CCCCNC(=O)[C@H](CC(C)C)NC(=O)[C@@H](N)CCCCN)NC(=O)[C@H](CC(C)C)NC(=O)[C@@H](N)CCCCN)C(N)=O [Z4] (I: H-KLK([Leu-Lys])KLKKLKK(Palmitoyl)-NH2 / II: H-KLK([Leu-Lys])KLKKL / III: H-KLK([Leu-Lys])KL / IV: H-KLK([Leu-Lys])KL; amide I:6-IV:C, I:9-II:C, II:6-III:C) | 88 ± 11 | 89 ± 11
3 | CCCCCCCCCCCCCCCCCC(=O)NCCCC[C@H](NC(=O)[C@H](CCCCNC(=O)[C@H](CC(C)C)NC(=O)[C@H](CCCCN)NC(=O)[C@H](CCCCNC(=O)[C@H](CC(C)C)NC(=O)[C@H](CCCCN)NC(=O)[C@H](CCCCNC(=O)[C@H](CC(C)C)NC(=O)[C@@H](N)CCCCN)NC(=O)[C@H](CC(C)C)NC(=O)[C@@H](N)CCCCN)NC(=O)[C@H](CC(C)C)NC(=O)[C@H](CCCCN)NC(=O)[C@H](CCCCNC(=O)[C@H](CC(C)C)NC(=O)[C@@H](N)CCCCN)NC(=O)[C@H](CC(C)C)NC(=O)[C@@H](N)CCCCN)NC(=O)[C@H](CC(C)C)NC(=O)[C@H](CCCCN)NC(=O)[C@H](CCCCNC(=O)[C@H](CC(C)C)NC(=O)[C@H](CCCCN)NC(=O)[C@H](CCCCNC(=O)[C@H](CC(C)C)NC(=O)[C@@H](N)CCCCN)NC(=O)[C@H](CC(C)C)NC(=O)[C@@H](N)CCCCN)NC(=O)[C@H](CC(C)C)NC(=O)[C@H](CCCCN)NC(=O)[C@H](CCCCNC(=O)[C@H](CC(C)C)NC(=O)[C@@H](N)CCCCN)NC(=O)[C@H](CC(C)C)NC(=O)[C@@H](N)CCCCN)C(=O)N[C@@H](CS)C(N)=O [Z12] (I: H-KLK([Leu-Lys])KLKKLKK(Stearoyl)C-NH2 / II: H-KLK([Leu-Lys])KLKKL / III: H-KLK([Leu-Lys])KL / IV: H-KLK([Leu-Lys])KL; amide I:6-IV:C, I:9-II:C, II:6-III:C) | 112 ± 10 | 80 ± 5
4 | CCCCCCCCCCCCCCCCCC(=O)NCCCC[C@H](NC(=O)[C@H](CCCCNC(=O)[C@H](CC(C)C)NC(=O)[C@H](CCCCN)NC(=O)[C@H](CCCCNC(=O)[C@H](CC(C)C)NC(=O)[C@H](CCCCN)NC(=O)[C@H](CCCCNC(=O)[C@H](CC(C)C)NC(=O)[C@@H](N)CCCCN)NC(=O)[C@H](CC(C)C)NC(=O)[C@@H](N)CCCCN)NC(=O)[C@H](CC(C)C)NC(=O)[C@H](CCCCN)NC(=O)[C@H](CCCCNC(=O)[C@H](CC(C)C)NC(=O)[C@@H](N)CCCCN)NC(=O)[C@H](CC(C)C)NC(=O)[C@@H](N)CCCCN)NC(=O)[C@H](CC(C)C)NC(=O)[C@H](CCCCN)NC(=O)[C@H](CCCCNC(=O)[C@H](CC(C)C)NC(=O)[C@H](CCCCN)NC(=O)[C@H](CCCCNC(=O)[C@H](CC(C)C)NC(=O)[C@@H](N)CCCCN)NC(=O)[C@H](CC(C)C)NC(=O)[C@@H](N)CCCCN)NC(=O)[C@H](CC(C)C)NC(=O)[C@H](CCCCN)NC(=O)[C@H](CCCCNC(=O)[C@H](CC(C)C)NC(=O)[C@@H](N)CCCCN)NC(=O)[C@H](CC(C)C)NC(=O)[C@@H](N)CCCCN)C(=O)N[C@@H](C)C(N)=O [Z15] (I: H-KLK([Leu-Lys])KLKKLKK(Stearoyl)A-NH2 / II: H-KLK([Leu-Lys])KLKKL / III: H-KLK([Leu-Lys])KL / IV: H-KLK([Leu-Lys])KL; amide I:6-IV:C, I:9-II:C, II:6-III:C) | 107 ± 10 | 71 ± 7
5 | CCCCCCCCCCCCCCCCCC(=O)NCCCC[C@@H](NC(=O)[C@@H](CCCCNC(=O)[C@@H](CC(C)C)NC(=O)[C@@H](CCCCN)NC(=O)[C@@H](CCCCNC(=O)[C@@H](CC(C)C)NC(=O)[C@@H](CCCCN)NC(=O)[C@@H](CCCCNC(=O)[C@@H](CC(C)C)NC(=O)[C@H](N)CCCCN)NC(=O)[C@@H](CC(C)C)NC(=O)[C@H](N)CCCCN)NC(=O)[C@@H](CC(C)C)NC(=O)[C@@H](CCCCN)NC(=O)[C@@H](CCCCNC(=O)[C@@H](CC(C)C)NC(=O)[C@H](N)CCCCN)NC(=O)[C@@H](CC(C)C)NC(=O)[C@H](N)CCCCN)NC(=O)[C@@H](CC(C)C)NC(=O)[C@@H](CCCCN)NC(=O)[C@@H](CCCCNC(=O)[C@@H](CC(C)C)NC(=O)[C@@H](CCCCN)NC(=O)[C@@H](CCCCNC(=O)[C@@H](CC(C)C)NC(=O)[C@H](N)CCCCN)NC(=O)[C@@H](CC(C)C)NC(=O)[C@H](N)CCCCN)NC(=O)[C@@H](CC(C)C)NC(=O)[C@@H](CCCCN)NC(=O)[C@@H](CCCCNC(=O)[C@@H](CC(C)C)NC(=O)[C@H](N)CCCCN)NC(=O)[C@@H](CC(C)C)NC(=O)[C@H](N)CCCCN)C(=O)N[C@H](CS)C(N)=O [Z20] (I: H-[dK][dL][dK]([dL-dK])[dK][dL][dK][dK][dL][dK][dK](Stearoyl)[dC]-NH2 / II: H-[dK][dL][dK]([dL-dK])[dK][dL][dK][dK][dL] / III: H-[dK][dL][dK]([dL-dK])[dK][dL] / IV: H-[dK][dL][dK]([dL-dK])[dK][dL]; amide I:6-IV:C, I:9-II:C, II:6-III:C) | 85 ± 9 | 85 ± 9
